Entries after “also recorded” stand apart in the source; their conditions may differ.
Tests used:
[1] = test system: NMO mouse model, spines (cervical, thoracic and lumbar sections); assay: Spine histopathology scores in NMO mouse model, blinded study (Example 3); type: in vivo, C57BL/6 mice; conditions: spines collected Day 18; for Demyelination (H + E) score +/− SD: hematoxylin and eosin stained section, 4 mice per cohort
Source text: An NMO mouse model as described above was used. Spines were collected from 4 mice per treatment cohort on Day 18 and prepared for histology. Sections from cervical, thoracic and lumbar spine regions were scored and averaged. […] Bold formatting indicates significant (p<0.05) difference of treatment compared to PBS (control).

[2] = test system: NMO mouse model; assay: Mouse NMO model, more severe disease (25×10^6 Th17-polarized cells), disease scores, blinded study (Example 3); type: in vivo, C57BL/6 mice; conditions: for End Score (end disease score +/− SD): Day 17 post-transfer, AAT 2 mg or both i.p. daily Day 4 to Day 16; for End Score (end disease score +/− SD) / MMS +/− SD (mean maximum disease score) / Mean Day of Onset +/− SEM: Mpred 0.5 mg; for MMS +/− SD (mean maximum disease score) / Mean Day of Onset +/− SEM: AAT 2 mg or both i.p. daily Day 4 to Day 16 post-transfer; for Mean Day of Onset +/− SEM: 10 mice per cohort
Method: 25×10^6 cells prepared as above were adoptively transferred i.p. into recipient C57BL/6 mice. Mice received PBS, Mpred (0.5 mg), AAT (2 mg), or both AAT+Mpred as daily doses administered i.p. starting on Day 4 post-transfer until Day 16 post-transfer. Ten recipient mice per cohort. […] The bold p-values indicate significant (p<0.05) differences between the treatments when compared to PBS (control).

[3] = test system: spleen cells of Th17-polarized cell transplanted mice restimulated with MOG peptide; assay: Ex vivo cytokine measurements from spleen cells restimulated with MOG peptide, cytokine bead assay (Example 4); type: in vivo
Method: Ex vivo cytokine measurements from spleen cells of Th17-polarized cell transplanted mice restimulated with MOG peptide were conducted to survey effector and memory recall responses of the immune cell compartment, primarily from T cells. Spleens were collected from 6 mice per treatment cohort on Day 18. Single cell suspensions were prepared and cultured with the indicated amounts of MOG35-55 peptide. Supernatants were collected after 3 days of culture and IL-17A, IFN-γ, IL-6, or IL-2 measured by cytokine bead assay (BD Biosciences, San Jose, Calif., Cat. No. 560485). The results in this blinded study were expressed in cytokine pg/mL+/−SEM.

[4] = test system: Neuromyelitis Optica (NMO) induced by the adoptive transfer of Th17 Experimental Autoimmune Encephalomyelitis (EAE) cells; assay: NMO induced by adoptive transfer of Th17 EAE cells (15×10^6 cells), clinical scores (Example 1); type: in vivo, C57BL/6 mice; conditions: 2 mg A1AT in PBS i.p. daily day 5 to day 18; vs PBS; n=10 mice per group
Source text: C57BL/6 donor mice were immunized via subcutaneous injection with MOG-35-55 peptide in complete Freund's Adjuvant. This induces Experimental Autoimmune Encephalomyelitis (EAE), an animal model for progressive multiple sclerosis. (Miller et al., Curr. Protoc. Immunol., Chapter Unit 15.1 (2007); incorporated herein by reference in its entirety). The mice were boosted […] via intraperitoneal injection with Pertussis toxin on day 0, 2, and 7 days post-immunization. Mice were sacrificed and spleens and lymph nodes collected and resuspended into single cell suspensions. Cells were cultured with MOG peptide and IL-23 to increase Th17 skewing and cultured for 3 days. Cells were harvested and approximately 15×10̂6 cells were adoptively transferred into recipient C57BL/6 mice via intraperitoneal injection. Starting day 5 for 2 weeks until day 18, mice were administered daily via intraperitoneal injection with 100 uL of PBS or A1AT (2 mg A1AT formulated in PBS). Clinical scores were measured each day at approximately the same time of day. Clinical scores measure ascending paralysis. A score of 1 is a limp tail. A score of 2 includes hind limb weakness. A score of 3 includes hind limb paralysis. A score of 4 includes forelimb weakness. A score of 5 is indicated by death. (See Miller et al.).

[5] = test system: murine model of NMO; assay: Murine model of NMO, less severe disease (12×10^6 Th17-polarized cells), disease score (Example 2); type: in vivo, C57BL/6 mice; conditions: FIG. 2
Method: Blood-derived human A1AT was compared to Sivelestat in a murine model of NMO. A less severe disease was induced when 12×10^6 Th17-polarized cells were adoptively transferred i.p. into recipient C57BL/6 mice. To induce Th17-polarized cells, C57BL/6 mice were induced with MOG35-55/CFA. 11 days later, their spleen cells were harvested and restimulated in culture with MOG35-55 peptide (Miller et al., supra) for 3 days.
Mice received PBS, Sivelestat (0.5 mg), or A1AT (2 mg) as daily doses administered i.p. starting on Day 5 post-transfer until Day 18 post-transfer. There were 10 recipient mice per cohort. Error bars represent SEM. Points where A1AT compared to PBS and mean disease scores were significant (p<0.05) are indicated (*).

| Molecule | Demyelination (H + E) score +/− SD [1] | Apoptotic Cells +/− SD (apoptotic cell counts) ([1]; 4 mice per treatment cohort) | Inflammatory foci +/− SD (number of inflammatory foci per section >20 cells) ([1]; 4 mice per treatment cohort) | End Score (end disease score +/− SD) [2] | MMS +/− SD (mean maximum disease score) [2] | Mean Day of Onset +/− SEM [2] | IL-17A ([3]; spleens Day 18, 6 mice per cohort, supernatants after 3 days culture with MOG35-55, FIG. 5A) | IFN-γ ([3]; spleens Day 18, 6 mice per cohort, supernatants after 3 days culture with MOG35-55, FIG. 5B) | IL-2 ([3]; without antigenic restimulation (0 MOG peptide), compared to Mpred alone, FIG. 5D) | Mean disease scores over days measured ([2]; FIG. 3, 10 recipient mice per cohort, vs PBS or either treatment alone) | Clinical scores (ascending paralysis) [4] | Onset of disease ([5]; A1AT 2 mg i.p. daily Day 5 to Day 18 post-transfer) | NMO disease score ([5]; A1AT 2 mg or Sivelestat 0.5 mg i.p. daily Day 5 to Day 18 post-transfer, vs PBS) |
| --- | --- | --- | --- | --- | --- | --- | --- | --- | --- | --- | --- | --- | --- |
| C[C@H]1C[C@@H]2[C@H]([C@@H](O)C[C@@]3(C)[C@H]2CC[C@]3(O)C(=O)CO)[C@@]2(C)C=CC(=O)C=C12 [Mpred, methylprednisolone, reference compound] | 1.2 +/− 0.3 | 1.3 +/− 0.9 | 3.0 +/− 0.9 | 2.25 +/− 0.42 | 2.95 +/− 0.44 | 8.5 +/− 0.4 |  |  |  |  |  |  |  |
| alpha-1 antitrypsin [A1AT] | 1.8 +/− 0.4 | 2.5 +/− 0.3 |  | 3.10 +/− 0.57 | 3.50 +/− 0.00 | 8.4 +/− 0.4 | decreased the inflammatory cytokines IL-17A compared to PBS and Mpred alone; also recorded: decreased the inflammatory cytokine IL-17A when compared to PBS and Mpred alone | decreased the inflammatory cytokine IFN-γ when compared to Mpred alone | IL-2 levels were higher without antigenic restimulation (0 MOG peptide) | early efficacy compared to Mpred alone and PBS (control) on Day 5 and 6 but afterwards did not show therapeutic effect | significant improvement when compared to PBS treatment | delay onset of disease | reduced the NMO disease score compared to PBS (control) and was superior to Sivelestat at all days of overt signs of disease |
